Laboratory results as given in patent EP3683219A1, “COMPOUND INHIBITING BUTYRYLCHOLINESTERASE” (Julius-Maximilians-Universität Würzburg, priority 2019, dated 2020).

What was measured:
[1] = system: Aβ25-35-induced passive avoidance impairments; assay: Step-through passive avoidance test, Aβ25-35-injected mice; assay type: in vivo, male Swiss mice; details: 0.3-3 mg/kg ip o.d. day 1 to 7; retention day 10
hAChE = hAChE (Homo sapiens, UniProt P22303); assay: Ellman's colorimetric assay, inhibition of hAChE; assay type: biochemical
hAChE, sequence (P22303 32-614): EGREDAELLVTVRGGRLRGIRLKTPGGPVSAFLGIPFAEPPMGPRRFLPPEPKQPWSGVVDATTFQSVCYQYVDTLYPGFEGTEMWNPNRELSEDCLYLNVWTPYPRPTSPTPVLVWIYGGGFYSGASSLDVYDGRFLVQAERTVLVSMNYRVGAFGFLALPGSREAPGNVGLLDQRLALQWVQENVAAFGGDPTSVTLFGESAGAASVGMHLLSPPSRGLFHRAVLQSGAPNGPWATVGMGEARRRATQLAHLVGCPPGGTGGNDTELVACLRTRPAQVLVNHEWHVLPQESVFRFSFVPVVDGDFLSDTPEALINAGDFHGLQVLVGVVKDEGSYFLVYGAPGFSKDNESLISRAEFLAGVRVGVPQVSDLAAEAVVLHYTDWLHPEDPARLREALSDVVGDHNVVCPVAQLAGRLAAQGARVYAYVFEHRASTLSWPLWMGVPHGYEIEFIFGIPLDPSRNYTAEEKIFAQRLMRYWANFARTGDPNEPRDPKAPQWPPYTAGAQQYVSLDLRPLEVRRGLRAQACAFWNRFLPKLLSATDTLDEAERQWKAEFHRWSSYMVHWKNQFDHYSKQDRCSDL
Protocol: (§1) For evaluation of enzyme inhibition, Ellman's colorimetric assay was conducted as described in Ellman, G. L., Arch. Biochem. Biophys 1958, 74, 443-450 and Ellman, G. L. et al., Biochem. Pharmacol. 1961, 7, 88-95. Therefor, 5,5'-dithiobis-(2-nitrobenzoic acid) (DTNB) solution, respective Cholinesterase (ChE) and inhibitor were incubated together and enzyme activity was measured after 20 min. The long incubation time was needed to allow the carbamate transfer between ChE and inhibitor.
(§2) The carbamate residue was altered systematically by changing residues in the terminal position of carbamate moiety and different flexible alkylene linkers were introduced. […] Nevertheless, it must be noted that IC50 values only serve as a first indicator of inhibitor affinity and selectivity. Due to the chemical reaction of carbamate transfer the enzyme inhibition is strongly time dependent. […]

[2] = system: Aβ25-35-induced spontaneous alternation deficits; assay: Spontaneous alternation test in the Y-maze, Aβ25-35-injected mice; assay type: in vivo, male Swiss mice; details: for prevention of the effects of Aβ injection, both behavioral parameters: dose of 1 or 3 mg/kg ip, Y-maze and passive avoidance; for dose active on Aβ25-35-induced spontaneous alternation deficits: ip o.d. day 1 to 7, Y-maze day 8
Protocol: 2013, 38, pages 1706-1723.
AD-like cognitive dysfunctions were induced in male Swiss mice, 6 weeks old, weighing 31-36 g by intracerebroventricular (icv) injection of the oligomerized Aβ25-35 peptide into the mouse brain on day 1.
Compounds were weighed, dissolved in pure DMSO at a concentration of 1 mg/ml and diluted into final test concentrations with saline. The final percentage of DMSO in saline was 60% for all compounds. Vehicle solution used for control groups was 60% DMSO in saline. Compounds were injected intraperitoneally (ip) from day 1 to 7 and behavioral studies were conducted between day 8 and 10. Spatial working memory was evaluated using a spontaneous alternation test in a Y-maze on day 8. The Y-maze is made of grey polyvinylchloride. Each arm is 40 cm long, 13 cm high, 3 cm wide at the bottom, 10 cm wide at the top, and converging at an equal angle. Each mouse is placed at the end of one arm and allowed to explore the maze freely for 8 min. The sequence of arm entries (including possible returns into the same arm) was checked visually and noted down. If the mouse enters all three arms on consecutive occasion, this is defined as an alternation. Therefore, the total number of arm entries minus two is also the maximum number of alternations. The percentage of alternation was calculated as (actual alternations / maximum alternations) x 100. Parameters for the evaluation of behavior are given as the percentage of alternation (memory index) and a total number of arm entries (exploration index).
Figs. 7a-h show the effect of the compounds on Aβ25-35-induced spontaneous alternation deficits in mice. […] Figs. 7a, c, e, g: spontaneous alternation performance; Figs. 7b, d, f, h: number of arm entries in the Y-maze test performed at day 8.

hBChE [3] = molecular target: T1, hBChE (Homo sapiens, UniProt P06276); assay: biochemical; assay type: biochemical; details: for plC50 ± SEM (hBChE) / IC50: enzyme activity measured after 20 min incubation; for IC50: read-out: IC50 hBChE; for Selectivity index (IC50 hAChE/IC50 hBChE): hAChE over hBChE
T1 sequence (P06276 29-602): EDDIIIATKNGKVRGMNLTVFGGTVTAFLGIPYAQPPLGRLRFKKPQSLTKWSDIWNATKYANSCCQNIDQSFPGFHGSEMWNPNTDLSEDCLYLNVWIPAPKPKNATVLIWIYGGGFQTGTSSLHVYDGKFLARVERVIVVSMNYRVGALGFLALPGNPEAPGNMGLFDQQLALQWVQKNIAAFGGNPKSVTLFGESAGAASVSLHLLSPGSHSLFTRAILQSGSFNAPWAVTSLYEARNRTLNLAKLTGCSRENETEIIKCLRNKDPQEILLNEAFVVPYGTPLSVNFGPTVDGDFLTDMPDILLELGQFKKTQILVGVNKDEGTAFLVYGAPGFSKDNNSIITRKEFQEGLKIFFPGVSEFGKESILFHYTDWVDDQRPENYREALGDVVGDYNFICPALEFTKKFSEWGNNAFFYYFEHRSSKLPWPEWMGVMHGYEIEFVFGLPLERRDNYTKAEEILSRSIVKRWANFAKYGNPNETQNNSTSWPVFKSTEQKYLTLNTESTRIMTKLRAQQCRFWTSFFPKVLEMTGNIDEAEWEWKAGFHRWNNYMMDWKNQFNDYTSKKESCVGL
Protocol: as §1, §2

hBChE [4] = molecular target: T1, hBChE; assay: Carbamoylation kinetics on hBChE (time-dependent inhibition, Kc and k3); assay type: biochemical; details: for k3 [min^-1] hBChE: carbamoylation rate constant; for Kd: carbamoylation, pre-equilibrium constant
Excerpt: As carbamate based inhibitors (C-X) show a pseudo irreversible manner of binding, the IC50 values must be seen critically because two chemical reactions determine them: Carbamate (C) transfer onto the enzyme (E) and carbamate hydrolysis. So, the Kc values, k3 and k4 rate constants according to below formula were investigated for some representative compounds (c.f. Fig. 3 and Fig. 4). [formula]
The mechanism of enzyme inhibition can be divided into three steps: In a pre-equilibrium, the carbamate based inhibitor C-X is bound to the enzyme E and a complex (EC-X) is formed reversible and can be characterized with Kc. Then the carbamate C is transferred onto the enzyme E and binds covalently to form E-C with the rate constant k3 while carrier scaffold X is released. Then E-C is hydrolyzed and enzyme activity is recovered and the amine C' is released with the rate constant k4, also called decarbamoylation rate.
For the determination of Kc and k3 a similar experimental setup was used compared to the evaluation of IC50 values, whereas enzyme activity was measured at various time points after addition of inhibitor.
A = A0 ⋅e^(−kobs ⋅t) + A∞ [formula]
Plotting the enzyme activity (in %) against the incubation times, lead to nonlinear time-dependent inhibition curves for the respective inhibitor concentrations whereby kobs can be determined with an exponential fit correspondent to equation (I).
Furthermore, a hyperbolic curve is obtained, plotting the rate constant kobs against the inhibitor concentration [I], which is described by equation (II), with the substrate concentration [S] and the Michaelis-Menten constant KM. kobs = (k3 ⋅[I])/(KC ⋅(1+([S])/(KM)) + [I]) [formula]
This equation (II) can be rearranged to the reciprocal of kobs, to get a linear plot: (1)/(kobs) = (KC ⋅(1+([S])/(KM)))/(k3)⋅(1)/([I]) + (1)/(k3) [formula]
Since the substrate butyrylthiocholine iodide is not added directly to the enzyme and the inhibitor, but after the incubation of enzyme with inhibitor, [S] can be set to zero, leading to Michaelis-Menten like equation IV. (1)/(kobs) = (KC)/(k3)⋅(1)/([I]) + (1)/(k3) [formula]
Relating to the linear equation (IV), KC can be established from the slope and carbamoylation rate constant k3 from the y-intercept.
As a chemical reaction is taking place, Kc must be seen as a 'real' measure for quantification of enzyme inhibitor interactions. Due to the high costs in measurements on hBChE only some representative compounds were chosen to evaluate also in kinetic studies based on the results from IC50 measurements (table 3). Table 3. Kinetic values for carbamoylation on hBChE for selected representative compounds

hBChE [5] = molecular target: T1, hBChE; assay: Decarbamoylation from hBChE, dilution experiments (recovery of enzyme activity, k4); assay type: biochemical; details: decarbamoylation rate, after 1 h incubation and 1:1000 dilution
Protocol: To further investigate the presence and nature of a peripheral binding site, also the hydrolysis of carbamate and the resulting release of the inhibitor from the enzyme was investigated by measuring the time dependent recovery of enzyme activity. To measure the decarbamoylation rate k4, dilution experiments were performed with hBChE following the procedure described in Sawatzky, E. et al., ChemMedChem 2016, 11, 1540-1550 and in Bartolucci, C. et al., Biochem. J. 2012, 444, 269-277. A high concentration of enzyme and inhibitor where incubated for 1 h. The concentration of inhibitor was chosen, such that > 85% of hBChE was inhibited through carbamate transfer. Then the mixture was diluted with buffer 1:1000 to a concentration at which the enzyme is not further carbamoylated. Due to the hydrolysis and release of the carbamate from the catalytic active serine enzyme activity was recovered slowly. This regeneration of the enzyme was monitored at different time points after the dilution. […] A = (1−e^(k4 ⋅t))⋅(1−A0) + A0 [formula] Table 4. Kinetic values for decarbamoylation from hBChE of selected compounds

Row | SMILES | effect on Aβ25-35-induced passive avoidance deficits (step-through latency, retention) [1] | inhibition at 100 µM (hAChE; 100 µM, read-out: inhibition of hAChE) [%] | prevention of the effects of Aβ injection, both behavioral parameters [2] | dose active on Aβ25-35-induced spontaneous alternation deficits [2] [mg/kg ip] | fold lower activity than heptyl carbamate 7 (IC50 hBChE) (hBChE [3]; compared with compound 7) | plC50 ± SEM (hBChE) (hBChE [3]) | IC50 (hBChE [3]) [nM] | Selectivity index (IC50 hAChE/IC50 hBChE) (hBChE [3]) | k3 [min^-1] hBChE (hBChE [4]) [min⁻¹] | Kd (hBChE [4]) [nM] | k4 (hBChE [5]) [h⁻¹] | inhibition at 10 µM (hAChE; 10 µM) [%] | Kc values (hBChE), in words (hBChE [4])
1 | CN1c2ccc(OC(=O)NCCCCCCN3CCOCC3)cc2CN2CCc3ccccc3C21 (stereo not shown) [Compound 19d] | effective at the 3 doses tested | 45 | fully prevented the effects of Aβ injection | 0.3 | approximately 10 fold | 7.31 ± 0.02 | 49.3 | >1000 | 0.16 ± 0.02 | 202 ± 55 | 0.042 ± 0.004 |  | 
2 | CN1c2ccc(OC(=O)NCCCCCCN3CCc4ccccc4C3)cc2CN2CCc3ccccc3C21 (stereo not shown) [Compound 19j] | effective at the 3 doses tested |  | fully prevented the effects of Aβ injection | 1 |  | 7.57 ± 0.05 | 26.7 | >1000 | 0.18 ± 0.02 | 3.6 ± 2.9 | 0.025 ± 0.001 | 9 | one-digit nanomolar range
